Assay results published in patent US9499509B2, “Dihydrochalcone derivatives and their use as antibiotic agents” (UNIVERSITÉ DU QUÉBEC À CHICOUTIMI, priority 2012, dated 2016).
Converted amounts (≈) assume the structure as drawn.

How the values were obtained:
[1] = tested on: MRSA strains; assay: Antibiotic assay (absorption 660 nm, Example 2), MRSA strains; assay type: cell-based, Staphylococcus aureus
Description: (§1) Antibiotic agents. Gentamicin sulfate was provided by Calbiochem. Chloramphenicol was provided by Sigma-Aldrich.
(§2) Antibiotic assay. […] The bacteria strains were inoculated in nutrients broth. […] All bacteria were plated in nutrients broth at a concentration of 450 000 bacteria/m L.
(§3) Compounds IV to XXI were diluted in dimethylsulfoxide. […] The compounds were tested at 8 different concentrations.
(§4) Each well contained: 100 μL of bacteria, 100 μL of the compounds tested. The plates were incubated at 37° C. for 6 h. The absorption was read using a Varioskan flash multimode Reader™ (Thermo Scientific) at 660 nm.
(§5) MRSA. Ten (10) strains of MRSA obtained as described above were tested along with an S. aureus wild type (WT) strain (ATCC 25923).

[2] = tested on: S. aureus wild type strain (ATCC 25923); assay: Antibiotic assay (absorption 660 nm, Example 2), S. aureus wild type; assay type: cell-based, Staphylococcus aureus; details: for MIC: S. aureus WT (ATCC 25923); for S. aureus WT ATCC 25923 (toxicity on bacteria): Table 7, same values as MIC of Table 6
Description: as §1, §2, §3, §4, §5

[3] = tested on: WS-1 cell lines; assay: Cytotoxicity assay on WS-1 (Example 2); assay type: cell-based; design: unit not given here; details: Table 7; WS-1, 48 h
Description: Cytotoxicity assay. […] The WS-1 cell lines were provided by ATCC. […] The compounds tested were then added at 8 different concentrations. […] In Table 7, the therapeutic indexes of compounds IV to XXI are presented.

Row | Structure (SMILES) | MIC ([1]; MRSA 1) [µM] | MIC ([1]; MRSA 2) [µM] | MIC ([1]; MRSA 3) [µM] | MIC ([1]; MRSA 4) [µM] | MIC ([1]; MRSA 5) [µM] | MIC ([1]; MRSA 6) [µM] | MIC ([1]; MRSA 7) [µM] | MIC ([1]; MRSA 8) [µM] | MIC ([1]; MRSA 9) [µM] | MIC ([1]; MRSA 10) [µM] | MIC [2] [µM] | S. aureus WT ATCC 25923 (toxicity on bacteria) [2] | WS-1 (toxicity on normal cells, fibroblast) [3]
1 | O=C(CCc1ccccc1)c1c(O)cc(O)c2c1OC(c1ccc(O)cc1)CC2 (racemic) [IV] | 0.84 ± 0.04 (≈ 0.328 µg/mL) | 1.50 ± 0.06 (≈ 0.586 µg/mL) | 1.02 ± 0.06 (≈ 0.398 µg/mL) | 2.6 ± 0.2 (≈ 1.02 µg/mL) | 0.95 ± 0.01 (≈ 0.371 µg/mL) | 2.11 ± 0.07 (≈ 0.824 µg/mL) | 1.22 ± 0.04 (≈ 0.476 µg/mL) | 1.35 ± 0.05 (≈ 0.527 µg/mL) | 1.32 ± 0.04 (≈ 0.515 µg/mL) | 1.23 ± 0.08 (≈ 0.48 µg/mL) | 1.27 ± 0.06 (≈ 0.496 µg/mL) | 1.27 ± 0.06 | 16 ± 2
2 | COc1ccc(CCC(=O)c2c(O)cc(O)c3c2OC(c2ccc(O)cc2)CC3)cc1 (racemic) [VII] | 2.9 ± 0.1 (≈ 1.22 µg/mL) | 2.5 ± 0.1 (≈ 1.05 µg/mL) | 1.7 ± 0.1 (≈ 0.715 µg/mL) | 2.4 ± 0.2 (≈ 1.01 µg/mL) | 2.0 ± 0.1 (≈ 0.841 µg/mL) | 2.7 ± 0.1 (≈ 1.14 µg/mL) | 2.13 ± 0.02 (≈ 0.896 µg/mL) | 2.2 ± 0.5 (≈ 0.925 µg/mL) | 2.5 ± 0.2 (≈ 1.05 µg/mL) | 1.2 ± 0.2 (≈ 0.505 µg/mL) | 2.2 ± 0.2 (≈ 0.925 µg/mL) | 2.2 ± 0.2 | 26
3 | COc1ccc(CCC(=O)c2c(O)cc(O)c3c2O[C@@H](c2ccc(O)cc2)CC3)cc1 [IX] | 7.7 ± 0.3 (≈ 3.24 µg/mL) | 9 ± 1 (≈ 3.78 µg/mL) | 6.25 ± 0.06 (≈ 2.63 µg/mL) | 6.7 ± 0.2 (≈ 2.82 µg/mL) | 6.9 ± 0.4 (≈ 2.9 µg/mL) | 7.1 ± 0.9 (≈ 2.99 µg/mL) | 5.2 ± 0.4 (≈ 2.19 µg/mL) | 4.9 ± 0.2 (≈ 2.06 µg/mL) | 3.7 ± 0.2 (≈ 1.56 µg/mL) | 7.5 ± 0.7 (≈ 3.15 µg/mL) | 8.0 ± 0.3 (≈ 3.36 µg/mL) | 8.0 ± 0.3 | >50
4 | COc1ccc(CCC(=O)c2c(O)cc(O)c3c2O[C@H](c2ccc(O)cc2)CC3)cc1 [VIII] | >50 | >50 | >50 | >50 | >50 | >50 | >50 | >50 | >50 | >50 | >50 | >50 | >50

Continued, in another order:

Row | MIC ([1]; MRSA 1) [µM] | MIC ([1]; MRSA 2) [µM] | MIC ([1]; MRSA 3) [µM] | MIC ([1]; MRSA 4) [µM] | MIC ([1]; MRSA 5) [µM] | MIC ([1]; MRSA 6) [µM] | MIC ([1]; MRSA 7) [µM] | MIC ([1]; MRSA 8) [µM] | MIC ([1]; MRSA 9) [µM] | MIC ([1]; MRSA 10) [µM] | MIC [2] [µM] | Structure (SMILES) | S. aureus WT ATCC 25923 (toxicity on bacteria) [2] | WS-1 (toxicity on normal cells, fibroblast) [3]
5 | 2.9 ± 0.2 (≈ 1.18 µg/mL) | 2.7 ± 0.1 (≈ 1.1 µg/mL) | 7.8 ± 0.5 (≈ 3.17 µg/mL) | 6.8 ± 0.7 (≈ 2.76 µg/mL) | 2.7 ± 0.3 (≈ 1.1 µg/mL) | 5.4 ± 0.4 (≈ 2.19 µg/mL) | 2.0 ± 0.2 (≈ 0.813 µg/mL) | 3.4 ± 0.3 (≈ 1.38 µg/mL) | 2.9 ± 0.1 (≈ 1.18 µg/mL) | 4.2 ± 0.8 (≈ 1.71 µg/mL) | 3.2 ± 0.2 (≈ 1.3 µg/mL) | O=C(CCc1ccccc1)c1c(O)cc2c(c1O)CC(O)C(c1ccc(O)cc1)O2 (racemic) [XIII] | 3.2 ± 0.2 | 10.1 ± 0.8
6 | 2.6 ± 0.1 (≈ 1.13 µg/mL) | 2.4 ± 0.1 (≈ 1.05 µg/mL) | 4.3 ± 0.4 (≈ 1.88 µg/mL) | 2.9 ± 0.6 (≈ 1.27 µg/mL) | 3.1 ± 0.6 (≈ 1.35 µg/mL) | 2.8 ± 0.2 (≈ 1.22 µg/mL) | 2.6 ± 0.1 (≈ 1.13 µg/mL) | 2.7 ± 0.2 (≈ 1.18 µg/mL) | 3.0 ± 0.3 (≈ 1.31 µg/mL) | 2.56 ± 0.04 (≈ 1.12 µg/mL) | 2.5 ± 0.1 (≈ 1.09 µg/mL) | COc1ccc(CCC(=O)c2c(O)cc(O)c3c2OC(c2ccc(O)cc2)C(O)C3)cc1 (racemic) [XIX] | 2.5 ± 0.1 | 8.2 ± 1.0
7 | 5.6 ± 0.5 (≈ 2.28 µg/mL) | 4.7 ± 0.4 (≈ 1.91 µg/mL) | 5.1 ± 0.3 (≈ 2.07 µg/mL) | 5.7 ± 0.4 (≈ 2.32 µg/mL) | 4.1 ± 0.6 (≈ 1.67 µg/mL) | 5.4 ± 0.7 (≈ 2.19 µg/mL) | 3.5 ± 0.3 (≈ 1.42 µg/mL) | 5.3 ± 0.6 (≈ 2.15 µg/mL) | 4.8 ± 0.2 (≈ 1.95 µg/mL) | 3.3 ± 0.1 (≈ 1.34 µg/mL) | 5.9 ± 0.3 (≈ 2.4 µg/mL) | O=C(CCc1ccccc1)c1c(O)cc(O)c2c1OC(c1ccc(O)cc1)C(O)C2 (racemic) [XVI] | 5.9 ± 0.3 | >50
8 | 5.2 ± 0.4 (≈ 2.19 µg/mL) | 5.7 ± 0.4 (≈ 2.4 µg/mL) | 4 (≈ 1.68 µg/mL) | 3 (≈ 1.26 µg/mL) | 4 ± 2 (≈ 1.68 µg/mL) | 9 ± 1 (≈ 3.78 µg/mL) | 5.3 ± 0.2 (≈ 2.23 µg/mL) | – | 5.3 ± 0.4 (≈ 2.23 µg/mL) | 5.6 ± 0.5 (≈ 2.35 µg/mL) | 5.3 ± 0.6 (≈ 2.23 µg/mL) | COc1cc(O)c(C(=O)CCc2ccc(O)cc2)c2c1CCC(c1ccc(O)cc1)O2 (racemic) [X] | 5.3 ± 0.6 | 16 ± 4
